# Measurements as given in US11478460B2, “Diaryl substituted 6,5-fused ring compounds as C5aR inhibitors” (CHEMOCENTRYX, INC., priority 2017, dated 2022).
# Biological target: C5aR (Homo sapiens (Human), UniProt P21730)
# Assay: Chemotaxis assay using U937 cells (C5aR mediated migration)
# Type: cell-based
# Settings: read-out: Mig IC50
# How it was run: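 Migration toward 0.03 nM C5a, mixed with varying compound in the lower chamber (HBSS with 1% FBS), was measured over 1.5 h at 37° C through 5 μm filters. Upper chamber held 100,000 U937 cells treated overnight with 0.5 mM cAMP; migrated cells quantified by counts or CyQuant for IC50, SDF-1α as specificity control.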
# C5aR, sequence (P21730 whole entry): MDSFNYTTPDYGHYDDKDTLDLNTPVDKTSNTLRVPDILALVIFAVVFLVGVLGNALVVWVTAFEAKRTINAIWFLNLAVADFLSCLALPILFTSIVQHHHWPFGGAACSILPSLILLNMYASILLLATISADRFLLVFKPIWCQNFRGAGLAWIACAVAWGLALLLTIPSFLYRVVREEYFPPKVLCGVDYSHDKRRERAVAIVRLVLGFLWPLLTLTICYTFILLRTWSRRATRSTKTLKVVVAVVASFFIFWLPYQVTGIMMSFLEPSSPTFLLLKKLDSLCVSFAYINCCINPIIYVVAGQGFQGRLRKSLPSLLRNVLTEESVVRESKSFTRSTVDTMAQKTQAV
row,SMILES,IC50
1,Cc1cccc(OCC(C)C)c1-n1nc2c(c1-c1ccc(NC(N)=O)cc1)CN(Cc1c(Cl)cc(C(F)(F)F)cc1C(F)(F)F)CC2 [Example 1.332],≤ 5 nM
2,Cc1cccc(OCC(C)C)c1-n1nc2c(c1-c1ccc(NC(N)=O)cc1)CN(Cc1c(C(F)(F)F)ccc(Cl)c1Cl)CC2 [Example 1.333],≤ 5 nM
3,Cc1cccc(OCC(C)C)c1-n1nc2c(c1-c1ccc(NC(N)=O)cc1)CN(Cc1c(F)cc(C(F)(F)F)cc1C(F)(F)F)CC2 [Example 1.334],≤ 5 nM
4,Cc1cccc(OCC(C)C)c1-n1nc2c(c1-c1ccc(NC(N)=O)cc1)CN(Cc1cc(C(F)(F)F)ccc1C(F)(F)F)CC2 [Example 1.335],≤ 5 nM
5,Cc1cccc(CCC(C)C)c1-n1nc2c(c1-c1ccc(NC(N)=O)cc1)CN(CC(C)(C)C)CC2 [Example 1.336],5 to 50 nM
6,Cc1cccc(CCC(C)C)c1-n1nc2c(c1-c1ccc(NC(N)=O)cc1)CN(Cc1ccc(C(F)(F)F)cc1C(F)(F)F)CC2 [Example 1.337],5 to 50 nM
7,Cc1cccc(OCC(C)C)c1-n1nc2c(c1-c1ccc(NC(N)=O)cc1)CN(Cc1cccc(C(F)(F)F)c1)CC2 [Example 1.338],5 to 50 nM
8,Cc1cccc(OCC(C)C)c1-n1nc2c(c1-c1ccc(NC(N)=O)cc1)CN(c1nc(C(F)(F)F)ccc1C(F)(F)F)CC2 [Example 1.339],≤ 5 nM
9,Cc1cc(C(F)(F)F)cnc1N1CCc2nn(-c3c(C)cccc3OCC(C)C)c(-c3ccc(NC(N)=O)cc3)c2C1 [Example 1.340],5 to 50 nM
10,Cc1cccc(OCC(C)C)c1-n1nc2c(c1-c1ccc(NC(N)=O)cc1)CN(c1cnc(C(F)(F)F)cn1)CC2 [Example 1.341],5 to 50 nM
11,Cc1cccc(OCC(C)C)c1-n1nc2c(c1-c1ccc(NC(N)=O)cc1)CN(c1cc(C(F)(F)F)ccc1C(F)(F)F)CC2 [Example 1.342],≤ 5 nM
12,Cc1cccc(OCC(C)C)c1-n1nc2c(c1-c1ccc(NC(N)=O)cc1)CN(c1ccc(C(F)(F)F)cc1C(F)(F)F)CC2 [Example 1.343],≤ 5 nM
13,Cc1cccc(OCC(C)C)c1-n1nc2c(c1-c1ccc(NC(N)=O)cc1)CN(CC(C)(C(F)(F)F)C(F)(F)F)CC2 [Example 1.344],≤ 5 nM
14,Cc1cccc(OCC(C)C)c1-n1nc2c(c1-c1ccc(NC(N)=O)cc1)CN(Cc1ccc(C(F)(F)F)cc1)CC2 [Example 1.345],≤ 5 nM
15,Cc1cccc(OCC(C)C)c1-n1nc2c(c1-c1ccc(NC(N)=O)cc1)CN(CC(C(F)(F)F)C(F)(F)F)CC2 [Example 1.346],5 to 50 nM
16,Cc1ccc(C(C)C)nc1N1CCc2nn(-c3c(C)cccc3OCC(C)C)c(-c3ccc(NC(N)=O)cc3)c2C1 [Example 1.347],≤ 5 nM
17,Cc1cnc(C(C)C)cc1N1CCc2nn(-c3c(C)cccc3OCC(C)C)c(-c3ccc(NC(N)=O)cc3)c2C1 [Example 1.348],5 to 50 nM
18,Cc1cccc(OCC(C)C)c1-n1nc2c(c1-c1ccc(NC(N)=O)cc1)CN(CC(C)(C)C#N)CC2 [Example 1.349],50 to 500 nM
19,Cc1cccc(OCC(C)C)c1-n1nc2c(c1-c1ccc(NC(N)=O)cc1)CN(Cc1c(F)cccc1Cl)CC2 [Example 1.350],5 to 50 nM
20,Cc1cccc(OCC(C)C)c1-n1nc2c(c1-c1ccc(NC(N)=O)cc1)CN(Cc1c(F)cccc1C(F)(F)F)CC2 [Example 1.351],≤ 5 nM
21,Cc1cccc(OCC(C)C)c1-n1nc2c(c1-c1ccc(NC(N)=O)cc1)CN(c1ncc(C(F)(F)F)cn1)CC2 [Example 1.352],5 to 50 nM
22,Cc1cccc(OCC(C)C)c1-n1nc2c(c1-c1ccc(NC(N)=O)cc1)CN(c1ncc(C(F)(F)F)cc1Cl)CC2 [Example 1.353],5 to 50 nM

row,SMILES,IC50
1,COc1cccc(F)c1CN1CCc2nn(-c3c(C)cccc3OCC(C)C)c(-c3ccc(NC(N)=O)cc3)c2C1 [Example 1.354],5 to 50 nM
2,Cc1cc(C(C)C)cnc1N1CCc2nn(-c3c(C)cccc3OCC(C)C)c(-c3ccc(NC(N)=O)cc3)c2C1 [Example 1.355],5 to 50 nM
3,Cc1cccc(OCC(C)C)c1-n1nc2c(c1-c1ccc(NC(N)=O)cc1)CN(Cc1c(F)cccc1F)CC2 [Example 1.356],5 to 50 nM
4,Cc1cccc(OCC(C)C)c1-n1nc2c(c1-c1ccc(NC(N)=O)cc1)CN(Cc1ccc(C(F)(F)F)cc1C(F)(F)F)CC2 [Example 1.357],≤ 5 nM
5,Cc1cccc(OCC(C)C)c1-n1nc2c(c1-c1ccc(NC(N)=O)cc1)CN(Cc1ccc(F)cc1C(F)(F)F)CC2 [Example 1.358],≤ 5 nM
6,Cc1cccc(Cl)c1CN1CCc2nn(-c3c(C)cccc3OCC(C)C)c(-c3ccc(NC(N)=O)cc3)c2C1 [Example 1.359],≤ 5 nM
7,Cc1cccc(F)c1CN1CCc2nn(-c3c(C)cccc3OCC(C)C)c(-c3ccc(NC(N)=O)cc3)c2C1 [Example 1.360],≤ 5 nM
8,Cc1cccc(OCC(C)C)c1-n1nc2c(c1-c1ccc(NC(N)=O)cc1)CN(Cc1ccccc1C(F)(F)F)CC2 [Example 1.361],≤ 5 nM
9,Cc1cccc(OCC(C)C)c1-n1nc2c(c1-c1ccc(NC(N)=O)cc1)CN(Cc1c(Cl)cccc1C(F)(F)F)CC2 [Example 1.362],≤ 5 nM
10,Cc1cccc(OCC(C)C)c1-n1nc2c(c1-c1ccc(NC(N)=O)cc1)CN(c1cc(C(C)(C)O)ccc1F)CC2 [Example 1.363],50 to 500 nM
11,Cc1cc(C(C)(C)O)cnc1N1CCc2nn(-c3c(C)cccc3OCC(C)C)c(-c3ccc(NC(N)=O)cc3)c2C1 [Example 1.364],> 500 nM
12,Cc1cc(C)c(CN2CCc3nn(-c4c(C)cccc4OCC(C)C)c(-c4ccc(NC(N)=O)cc4)c3C2)c(C)c1 [Example 1.365],≤ 5 nM
13,Cc1cccc(OCC(C)C)c1-n1nc2c(c1-c1ccc(NC(N)=O)cc1)CN(CC1(C(F)(F)F)CCCC1)CC2 [Example 1.366],5 to 50 nM
14,Cc1cccc(OCC(C)C)c1-n1nc2c(c1-c1ccc(NC(N)=O)cc1)CN(Cc1c(Cl)cccc1Cl)CC2 [Example 1.367],5 to 50 nM
15,Cc1cccc(OCC(C)C)c1-n1nc2c(c1-c1ccc(NC(N)=O)cc1)CN(c1cc(C(F)(F)F)ccc1F)CC2 [Example 1.368],5 to 50 nM
16,Cc1cccc(OCC(C)C)c1-n1nc2c(c1-c1ccc(NC(N)=O)cc1)CN(c1ccc(F)c(C(F)(F)F)c1)CC2 [Example 1.369],5 to 50 nM
17,Cc1cccc(OCC(C)C)c1-n1nc2c(c1-c1ccc(NC(N)=O)cc1)CN(c1ccc(C(C)(C)C)cn1)CC2 [Example 1.370],5 to 50 nM
18,Cc1ccccc1CN1CCc2nn(-c3c(C)cccc3OCC(C)C)c(-c3ccc(NC(N)=O)cc3)c2C1 [Example 1.371],5 to 50 nM
19,Cc1cccc(OCC(C)C)c1-n1nc2c(c1-c1ccc(NC(N)=O)cc1)CN(CC1(C(F)(F)F)CC1)CC2 [Example 1.372],5 to 50 nM
20,Cc1cccc(OCC(C)C)c1-n1nc2c(c1-c1ccc(NC(N)=O)cc1)CN(CC(C)(C)C(F)(F)F)CC2 [Example 1.373],5 to 50 nM
21,Cc1cccc(OCC(C)C)c1-n1nc2c(c1-c1ccc(NC(N)=O)cc1)CN(c1ncc(C(F)(F)F)cc1F)CC2 [Example 1.374],5 to 50 nM
22,Cc1cccc(OCC(C)C)c1-n1nc2c(c1-c1ccc(NC(N)=O)cc1)CN(c1ccc(C(F)(F)F)cc1Cl)CC2 [Example 1.375],5 to 50 nM

row,SMILES,IC50
1,Cc1cccc(C)c1CN1CCc2nn(-c3c(C)cccc3OCC(C)C)c(-c3ccc(NC(N)=O)cc3)c2C1 [Example 1.376],5 to 50 nM
2,Cc1cc(C(F)(F)F)ccc1N1CCc2nn(-c3c(C)cccc3OCC(C)C)c(-c3ccc(NC(N)=O)cc3)c2C1 [Example 1.377],5 to 50 nM
3,Cc1cccc(OCC(C)C)c1-n1nc2c(c1-c1ccc(NC(N)=O)cc1)CN(c1ccc(C(F)(F)F)cc1F)CC2 [Example 1.378],5 to 50 nM
4,Cc1cccc(OCC(C)C)c1-n1nc2c(c1-c1ccc(NC(N)=O)cc1)CN(c1ccc(Cl)c(C(F)(F)F)c1)CC2 [Example 1.379],5 to 50 nM
5,CCc1cccc(C)c1-n1nc2c(c1-c1ccc(NC(N)=O)cc1)CN(c1cc(C(C)(C)C)ccc1C)CC2 [Example 1.380],5 to 50 nM
6,CCC(C)(C)CN1CCc2nn(-c3c(C)cccc3OCC(C)C)c(-c3ccc(NC(N)=O)cc3)c2C1 [Example 1.381],5 to 50 nM
7,Cc1cccc(OCC(C)C)c1-n1nc2c(c1-c1ccc(NC(N)=O)cc1)CN(Cc1ccccc1)CC2 [Example 1.382],5 to 50 nM
8,Cc1ccc(C(C)(C)O)nc1N1CCc2nn(-c3c(C)cccc3OCC(C)C)c(-c3ccc(NC(N)=O)cc3)c2C1 [Example 1.383],50 to 500 nM
9,Cc1cc(C(F)(F)F)ccc1CN1CCc2nn(-c3c(C)cccc3OCC(C)C)c(-c3ccc(NC(N)=O)cc3)c2C1 [Example 1.384],5 to 50 nM
10,Cc1cccc(OCC(C)C)c1-n1nc2c(c1-c1ccc(NC(N)=O)cc1)CN(CC(C)C)CC2 [Example 1.385],50 to 500 nM
11,Cc1cccc(OCC(C)C)c1-n1nc2c(c1-c1ccc(NC(N)=O)cc1)CN(c1nc(C(F)(F)F)ccc1F)CC2 [Example 1.386],5 to 50 nM
12,Cc1ccc(C(C)(C)C)cc1N1CCc2nn(-c3c(C)cccc3CCC(C)C)c(-c3ccc(NC(N)=O)cc3)c2C1 [Example 1.387],5 to 50 nM
13,Cc1ccc(C(C)(C)C)cc1N1CCc2nn(-c3c(C)cccc3C(C)C)c(-c3ccc(NC(N)=O)cc3)c2C1 [Example 1.388],5 to 50 nM
14,Cc1cccc(OCC(C)C)c1-n1nc2c(c1-c1ccc(NC(N)=O)cc1)CN(CC(C)(C)O)CC2 [Example 1.389],> 500 nM
15,Cc1cccc(OCC(C)C)c1-n1nc2c(c1-c1ccc(NC(N)=O)cc1)CN(Cc1ccccc1C(C)C)CC2 [Example 1.390],5 to 50 nM
16,Cc1cccc(OCC(C)C)c1-n1nc2c(c1-c1ccc(NC(N)=O)cc1)CN(CC(C)C(F)(F)F)CC2 (stereo not shown) [Example 1.391],5 to 50 nM
17,Cc1cccc(OCC(C)C)c1-n1nc2c(c1-c1ccc(NC(N)=O)cc1)CN(Cc1cccc(C(C)(C)C)c1)CC2 [Example 1.392],5 to 50 nM
18,Cc1cccc(OCC(C)C)c1-n1nc2c(c1-c1ccc(NC(N)=O)cc1)CN(CCC(C)(C)C)CC2 [Example 1.393],50 to 500 nM
19,Cc1cccc(OCC(C)C)c1-n1nc2c(c1-c1ccc(NC(N)=O)cc1)CN(c1cc(C(C)(C)C)ccn1)CC2 [Example 1.395],5 to 50 nM
20,Cc1ccc(C(C)C)cc1N1CCc2nn(-c3c(C)cccc3OCC(C)C)c(-c3ccc(NC(N)=O)cc3)c2C1 [Example 1.396],5 to 50 nM
